Drawing on US7820708B2, “Carboxamides” (Bayer CropScience AG, priority 2005, dated 2010), this text covers Efficacy in % and chromatographic logP for 7 compounds.

Broadly, the chromatographic logP is a lipophilicity value derived from retention on a column. The low end stands for lower lipophilicity, the high end for higher lipophilicity.

The structures appear in SMILES notation.

One data set concerns Pyrenophora teres. Briefly: Pyrenophora teres test (barley)/protective. To be noted: protective, application rate 500 ppm, evaluation 8 days after inoculation. The class given is in vivo. The method, then:
(§1) To produce a suitable preparation of active compound, 1 part by weight of active compound is mixed with the stated amounts of solvent and emulsifier and the concentrate is diluted with water to the desired concentration.
To test for protective activity, young plants are sprayed with the active compound preparation at the stated application rate. After the spray coating has dried on, the plants are sprayed with a conidia suspension of Pyrenophora teres. The plants remain in an incubation cabin at 20° C. and 100% relative atmospheric humidity for 48 hours.
The plants are then placed in a greenhouse at a temperature of about 20° C. and a relative atmospheric humidity of about 80%.
Evaluation is carried out 8 days after the inoculation. 0% means an efficacy which corresponds to that of the control, whereas an efficacy of 100% means that no infection is observed.

Data set [1] is described as follows: log P determination by HPLC on reversed-phase column (C 18), EEC Directive 79/831 Annex V.A8. The class given is physicochemical. The note with it: reversed-phase HPLC column (C 18); pH 2.3; 0.1% aqueous phosphoric acid and acetonitrile; 43° C. The method, then:
The log P values given in the Tables and Preparation Examples above are determined in accordance with EEC Directive 79/831 Annex V.A8 by HPLC (High Performance Liquid Chromatography) on a reversed-phase column (C 18). Temperature: 43° C. The determination is carried out in the acidic range at pH 2.3 using the mobile phases 0.1% aqueous phosphoric acid and acetonitrile; linear gradient from 10% acetonitrile to 90% acetonitrile. Calibration is carried out using unbranched alkan-2-ones (having 3 to 16 carbon atoms) with known log P values (determination of the log P values by the retention times using linear interpolation between two successive alkanones).

A further data set has as its system Alternaria solani. The experiment in a line: Alternaria test (tomato)/protective. The class given is in vivo. To be noted: protective, application rate 1000 ppm, evaluation 7 days after inoculation. The method, then:
as §1
To test for protective activity, young tomato plants are sprayed with the active compound preparation at the stated application rate. 1 day after the treatment, the plants are inoculated with a spore suspension of Alternaria solani and then remain at 100% relative atmospheric humidity and 20° C. for 24 h. The plants then remain at 96% relative atmospheric humidity and a temperature of 20° C.
Evaluation is carried out 7 days after the inoculation. 0% means an efficacy which corresponds to that of the control, whereas an efficacy of 100% means that no infection is observed.

The subject of another data set is Uromyces appendiculatus. The experiment in a line: Uromyces test (bean)/protective. To be noted: protective, application rate 100 ppm, evaluation 10 days after inoculation. The class given is in vivo. The method, then:
To produce a suitable preparation of active compound, 1 part by weight of active compound is mixed within the stated amounts of solvents and emulsifier and the concentrate is diluted with water to the desired concentration.
To test for protective activity, the young plants are sprayed with the active compound preparation at the stated application rate. After the spray coating has dried on, the plants are inoculated with an aqueous spore suspension of the bean rust pathogen Uromyces appendiculatus and then remain in an incubation cabin at about 20° C. and 100% relative atmospheric humidity for 1 day. The plants are then placed in a greenhouse at about 21° C. and a relative atmospheric humidity of about 90%.
Evaluation is carried out 10 days after the inoculation. 0% means an efficiency which corresponds to that of the control, whereas an efficacy of 100% means that no infection is observed.

`Cc1nn(C)c(F)c1C(=O)N(c1ccc(F)cc1-c1ccc(Cl)c(Cl)c1)C1CC1` [Compound 10]: the Efficacy in % is given as 95% in the data set on Pyrenophora teres and 89% in the data set on Alternaria solani. Moreover, the chromatographic logP in data set [1] turned out to be 3.74.

`CC(C)CC(C)c1ccccc1N(C(=O)c1cn(C)nc1C(F)F)C1CC1` (stereo not drawn) [Compound 3, N-cyclopropyl-3-(difluoromethyl)-N-[2-(1,3-dimethylbutyl)phenyl]-1-methyl-1H-pyrazol-4-carboxamide] came in with a chromatographic logP in data set [1] of 3.89. For the same compound, the Efficacy in % was 100% with Uromyces appendiculatus and 94% in the data set on Alternaria solani.

In the case of `Cn1cc(C(=O)N(c2ccc(F)cc2-c2ccc(Cl)c(Cl)c2)C2CC2)c(C(F)F)n1` [Compound 11], the chromatographic logP in data set [1] was 3.85. Also, in the data set with Alternaria solani, the Efficacy in % is on record as 94%.

Consider `Cc1nn(C)c(F)c1C(=O)N(c1ccccc1-c1ccc(Cl)cc1)C1CC1` [Compound 6], for which the Efficacy in % in the data set on Pyrenophora teres turned out to be 80%; in the data set on Uromyces appendiculatus, 93%. In data set [1], this compound returned a chromatographic logP of 3.22.

In turn, `Cc1nn(C)c(F)c1C(=O)N(c1ccccc1C(C)CC(C)C)C1CC1` (stereo not drawn) [Compound 2] yielded a chromatographic logP in data set [1] of 3.74. Also, the Efficacy in % in the data set on Uromyces appendiculatus and in the data set on Alternaria solani was 100% in each case.

Take `CC(C)CC(C)c1ccccc1NC1CC1` (stereo not drawn) [III-1, N-cyclopropyl-2-(1,3-dimethylbutyl)aniline]: the chromatographic logP in data set [1] came to 5.33.

Take `Cn1cc(C(=O)N(c2ccccc2-c2ccc(Cl)cc2)C2CC2)c(C(F)F)n1` [Compound 7]: the Efficacy in % is reported as 95% in the data set on Pyrenophora teres and 89% with Alternaria solani. The chromatographic logP in data set [1] was determined as 3.38.
